# According to patent US6048854A, “2,3-diaminopropionic acid derivative” (Sumitomo Pharmaceuticals Company, Limited, priority 1993, dated 2000):
# Test system: platelet aggregation
# Assay: Platelet aggregation inhibitory activity (ADP-induced, human platelet rich plasma)
# Format: cell-based
# Conditions: Homo sapiens, Table 2, same manner as Example 17
# Procedure: The blood was collected from the elbow vein of a normal volunteer with mixing thereof with 1/10 volume of 3.8% sodium citrate, and the blood was centrifuged at 1000 rpm (150 g) for 10 minutes to give the supernatant as platelet rich plasma (PRP). To PRP (200 μl) was added a test compound solution (2 μl), and the mixture was incubated with stirring at 1000 rpm at 37° C. for two minutes, and thereto was added a platelet aggregator, adenosine diphosphate (ADP, 22 μl) at a final concentration of 3 μg/ml. The platelet aggregation activity was determined by nephelometric analysis using a Hematracer (manufactured by Niko Bioscience, Ltd.). The test results of platelet aggregation inhibitory activity are expressed by IC50, which is a concentration of the test compound being required to inhibit the platelet aggregation reaction by 50%.
# The compounds of Examples 18 to 70 were tested in the same manner as in Example 17.
# The compounds of Examples 72 to 116 were tested in the same manner as in Example 17.
row,Compound,IC50
1,"O=C(CCC1CCNCC1)NCCC(=O)NC[C@H](NS(=O)(=O)c1cccc(C(F)(F)F)c1)C(=O)O [Example 28, (2S)-3-(3-(3-(4-piperidyl)propanoylamino)propanoylamino)-2-(3-trifluoromethyl)benzenesulfonylaminopropanoic Acid]",58 nM
2,"O=C(CCC1CCNCC1)NCCC(=O)NC[C@H](NS(=O)(=O)c1ccc(C(F)(F)F)cc1)C(=O)O [Example 29, (2S)-3-(3-(3-(4-piperidyl)propanoylamino)propanoylamino)-2-(4-trifluoromethyl)benzenesulfonylaminopropanoic Acid]",170 nM
3,"O=C(CCC1CCNCC1)NCCC(=O)NC[C@H](NS(=O)(=O)c1ccc([N+](=O)[O-])cc1)C(=O)O [Example 32, (2S)-2-(4-nitro)benzenesulfonylamino-3-(3-(3-(4-piperidyl)propanoylamino)propanoylamino)propanoic Acid]",151 nM
4,"Cc1cc(C)c(S(=O)(=O)N[C@@H](CNC(=O)CCNC(=O)CCC2CCNCC2)C(=O)O)c(C)c1 [Example 33, (2S)-3-(3-(3-(4-piperidyl)propanoylamino)propanoylamino)-2-(2,4,6-trimethyl)benzenesulfonylaminopropanoic Acid]",15 nM
5,"O=C(CCC1CCNCC1)NCCC(=O)NC[C@H](NS(=O)(=O)c1c(F)c(F)c(F)c(F)c1F)C(=O)O [Example 34, (2S)-2-(2,3,4,5,6-pentafluoro)benzenesulfonylamino-3-(3-(3-(4-piperidyl)propanoylamino)propanoylamino)propanoic Acid]",126 nM
6,"CC(C)(C)c1ccc(S(=O)(=O)N[C@@H](CNC(=O)CCNC(=O)CCC2CCNCC2)C(=O)O)cc1 [Example 39, (2S)-2-(4-t-butyl)benzenesulfonylamino-3-(3-(3-(4-piperidyl)propanoylamino)propanoylamino)propanoic Acid]",185 nM
7,"COc1ccc(S(=O)(=O)N[C@@H](CNC(=O)CCNC(=O)CCC2CCNCC2)C(=O)O)cc1 [Example 40, (2S)-2-(4-methoxy)benzenesulfonylamino-3-(3-(3-(4-piperidyl)propanoylamino)propanoylamino)propanoic Acid]",3 nM
8,"CN(C)c1cccc2c(S(=O)(=O)N[C@@H](CNC(=O)CCNC(=O)CCC3CCNCC3)C(=O)O)cccc12 [Example 42, (2S)-2-(5-dimethylamino-1-naphthalene)sulfonylamino-3-(3-(3-(4-piperidyl)propanoylamino)propanoylamino)propanoic Acid]",233 nM

# The next lines start with the values.
row,IC50,Compound
1,30 nM,"Cc1ccccc1S(=O)(=O)N[C@@H](CNC(=O)CCNC(=O)CCC1CCNCC1)C(=O)O [Example 24, (2S)-2-(2-methyl)benzenesulfonylamino-3-(3-(3-(4-piperidyl)propanoylamino)propanoylamino)propanoic Acid]"
2,22 nM,"Cc1cccc(S(=O)(=O)N[C@@H](CNC(=O)CCNC(=O)CCC2CCNCC2)C(=O)O)c1 [Example 25, (2S)-2-(3-methyl)benzenesulfonylamino-3-(3-(3-(4-piperidyl)propanoylamino)propanoylamino)propanoic Acid]"
3,29 nM,"Cc1ccc(S(=O)(=O)N[C@@H](CNC(=O)CCNC(=O)CCC2CCNCC2)C(=O)O)cc1 [Example 26, (2S)-2-(4-methyl)benzenesulfonylamino-3-(3-(3-(4-piperidyl)propanoylamino)propanoylamino)propanoic Acid]"
4,26 nM,O=C(CCC1CCNCC1)NCCC(=O)NC[C@H](NS(=O)(=O)c1ccccc1C(F)(F)F)C(=O)O [Example 27]
5,16 nM,"O=C(CCC1CCNCC1)NCCC(=O)NC[C@H](NS(=O)(=O)c1ccccc1[N+](=O)[O-])C(=O)O [Example 30, (2S)-2-(2-nitro)benzenesulfonylamino-3-(3-(3-(4-piperidyl)propanoylamino)propanoylamino)propanoic Acid]"
6,142 nM,"O=C(CCC1CCNCC1)NCCC(=O)NC[C@H](NS(=O)(=O)c1cccc([N+](=O)[O-])c1)C(=O)O [Example 31, (2S)-2-(3-nitro)benzenesulfonylamino-3-(3-(3-(4-piperidyl)propanoylamino)propanoylamino)propanoic Acid]"
7,25 nM,"O=C(CCC1CCNCC1)NCCC(=O)NC[C@H](NS(=O)(=O)c1ccc(F)cc1)C(=O)O [Example 35, (2S)-2-(4-fluoro)benzenesulfonylamino-3-(3-(3-(4-piperidyl)propanoylamino)propanoylamino)propanoic Acid]"
8,62 nM,"O=C(CCC1CCNCC1)NCCC(=O)NC[C@H](NS(=O)(=O)c1ccc(Cl)cc1)C(=O)O [Example 36, (2S)-2-(4-chloro)benzenesulfonylamino-3-(3-(3-(4-piperidyl)propanoylamino)propanoylamino)propanoic Acid]"
9,48 nM,"O=C(CCC1CCNCC1)NCCC(=O)NC[C@H](NS(=O)(=O)c1ccc(Br)cc1)C(=O)O [Example 37, (2S)-2-(4-bromo)benzenesulfonylamino-3-(3-(3-(4-piperidyl)propanoylamino)propanoylamino)propanoic Acid]"
10,35 nM,"CCc1ccc(S(=O)(=O)N[C@@H](CNC(=O)CCNC(=O)CCC2CCNCC2)C(=O)O)cc1 [Example 38, (2S)-2-(4-ethyl)benzenesulfonylamino-3-(3-(3-(4-piperidyl)propanoylamino)propanoylamino)propanoic Acid]"
11,35 nM,"O=C(CCC1CCNCC1)NCCC(=O)NC[C@H](NS(=O)(=O)c1cccc2ccccc12)C(=O)O [Example 41, (2S)-2-(1-naphthalene)sulfonylamino-3-(3-(3-(4-piperidyl)propanoylamino)propanoylamino)propanoic Acid]"

# Same assay, conditions: Table 1, human PRP, ADP 3 μg/ml, 37° C.
row,Compound,IC50
1,"CCCCS(=O)(=O)N[C@@H](CNC(=O)CNC(=O)CCCC1CCNCC1)C(=O)O [Example 5, (2S)-2-butanesulfonylamino-3-(N-(4-(4-piperidyl)butanoyl)glycylamino)propanoic Acid]",2990 nM
2,"CCCCS(=O)(=O)N[C@@H](CNC(=O)CNC(=O)[C@H](C)N(C)C(=O)CCC1CCNCC1)C(=O)O [Example 7, (2S)-2-butanesulfonylamino-3-(N-(3-(4-piperidyl)propanoyl)-N-methyl-L-alanylglycylamino)propanoic Acid]",1220 nM
3,"CCCCS(=O)(=O)N[C@@H](CNC(=O)CNC(=O)CCCCCC1CCNCC1)C(=O)O [Example 8, (2S)-2-butanesulfonylamino-3-(N-(6-(4-piperidyl)hexanoyl)glycylamino)propanoic Acid]",583 nM
4,"CCCCC(=O)N[C@@H](CNC(=O)CCNC(=O)CCC1CCNCC1)C(=O)O [Example 11, (2S)-2-pentanoylamino-3-(3-(3-(4-piperidyl)propanoylamino)propanoylamino)propanoic Acid]",8730 nM
5,"CCCCS(=O)(=O)N[C@@H](CNC(=O)CNC(=O)CCCCC1CCNCC1)C(=O)O [Example 12, (2S)-2-butanesulfonylamino-3-(N-(5-(4-piperidyl)pentanoyl)glycylamino)propanoic Acid]",1370 nM
6,"CCCCS(=O)(=O)N[C@@H](CNC(=O)CCNC(=O)CCCCC1CCNCC1)C(=O)O [Example 13, (2S)-2-butanesulfonylamino-3-(3-(5-(4-piperidyl)pentanoylamino)propanoylamino)propanoic Acid]",1810 nM
7,"CCCCS(=O)(=O)N[C@@H](CNC(=O)CNC(=O)[C@H](Cc1ccc(OC)cc1)NC(=O)CCC1CCNCC1)C(=O)O [Example 14, (2S)-2-butanesulfonylamino-3-(N-(3-(4-piperidyl)propanoyl)-O-methyl-L-tyrosylglycylamino)propanoic Acid]",6140 nM
8,"CCCCS(=O)(=O)N[C@@H](CNC(=O)CNC(=O)[C@H](C)NC(=O)CCC1CCNCC1)C(=O)O [Example 15, (2S)-2-butanesulfonylamino-3-(N-(3-(4-piperidyl)propanoyl)-L-alanylglycylamino)propanoic Acid]",5240 nM
9,"COc1ccc(C[C@H](NC(=O)CCC2CCNCC2)C(=O)NCC(=O)NC[C@H](NS(C)(=O)=O)C(=O)O)cc1 [Example 16, (2S)-2-methanesulfonylamino-3-(N-(3-(4-piperidyl)propanoyl)-O-methyl-L-tyrosylglycylamino)propanoic Acid]",2530 nM

# Results, then the molecule that gave them:
row,IC50,Compound
1,162 nM,"CCCCS(=O)(=O)N[C@@H](CNC(=O)CCNC(=O)CCC1CCNCC1)C(=O)O [Example 3, (2S)-2-butanesulfonylamino-3-(3-(3-(4-piperidyl)propanoylamino)propanoylamino)propanoic Acid]"
2,513 nM,"O=C(CCC1CCNCC1)NCCC(=O)NC[C@H](NC(=O)OCc1ccccc1)C(=O)O [Example 4, (2S)-2-Benzyloxycarbonylamino-3-(3-(3-(4-piperidyl)propanoylamino)propanoylamino)propanoic Acid]"
3,376 nM,"O=C(CCC(=O)NC[C@H](NS(=O)(=O)c1ccccc1)C(=O)O)NCCC1CCNCC1 [Example 6, (2S)-2-benzenesulfonylamino-3-(N-(2-(4-piperidyl)ethyl)succinamylamino)propanoic Acid]"
4,3630 nM,"CCCCS(=O)(=O)N[C@H](CNC(=O)CCNC(=O)CCC1CCNCC1)C(=O)O [Example 9, (2R)-2-butanesulfonylamino-3-(3-(3-(4-piperidyl)propanoylamino)propanoylamino)propanoic Acid]"
5,232 nM,"O=C(CCC1CCNCC1)NCCC(=O)NC[C@H](NS(=O)(=O)Cc1ccccc1)C(=O)O [Example 10, (2S)-2-benzylsulfonylamino-3-(3-(3-(4-piperidyl)propanoylamino)propanoylamino)propanoic Acid]"
